Measured values: US9403806B1, “Cognition enhancing compounds and compositions, methods of making, and methods of treating” (NeuroSolis, Inc., priority 2010, dated 2016)
Like-named read-outs stand apart in the source and are kept apart here.

Tests used:
[1] = Blood and brain concentrations (rats), tail vein injection; type: in vivo, Long-Evans Hooded rats; settings: male, Long-Evans Hooded, rat, 3 mg/kg; for Kp at 1 h: brain and plasma, intravenous, Table 114, read-out: Brain/Plasma Ratio; for concentration at 1 h: in vivo, 3 mg/kg tail vein injection
Protocol: Long-Evans Hooded rats (Charles River: male, 230-300 g) were dosed with solutions of test compounds in PBS by tail vein injection. The dose for all compounds was 3 mg/kg. At one hour, the animals were anesthetized with isoflurane, and then euthanized by decapitation. Trunk blood was collected into a 1.5 mL microcentrifuge tube containing 15 U Heparin, and the plasma recovered after centrifugation. Brains were dissected, weighed, immediately chilled to 4° C., and homogenized using a PowerGen 125 homogenizer in five volumes of ice-cold 2% formic acid. Proteins were precipitated from plasma and brain homogenate with nine and five volumes respectively of ice-cold 2% formic acid and clarified by centrifugation. The supernatant was ultra-filtered by centrifugation through a 3K MWCO spin column (Pall Life Sciences), following the manufacturer's instructions. The concentration of compound in the ultra-filtrate was subjected to reverse-phase liquid chromatography using a 150×2.1 mm Agent C8 reverse-phase column on a Shimadzu Prominence LC, eluting the compounds with a gradient of 2% to 50% of acetonitrile+0.1% formic acid for all compounds. The concentration of the compound in the column effluent was measured using an Applied Biosystems API-3200 triple quadrupole mass spectrometer equipped with an electrospray sample injection system. The counts of the characteristic parent and product ions of each test compound were converted to concentration units by comparison with a standard curve.

[2] = in vitro; type: in vitro ADME; settings: PAMPA, pH 7.4, 400 μM, pH 7.4, 24 hours, room temperature; read-out: PAMPA Permeability Coefficient (×10^6)
Protocol: PAMPA is a useful in vitro model for predicting the passive diffusion of drugs across the blood-brain barrier (Li, D et al Eur jour of Med Chem 38 (2003) 223-232).
Compounds were diluted in a 100 mM phosphate buffer (pH 7.4) to a concentration of 400 μM and the stock solutions were placed into a 96-well filter plate (Millipore, #MAIPN4510) pre-wetted with 20 mg/mL porcine brain polar lipid extract in 100% dodecane (Avanti, #131022) and placed into a 96-well acceptor plate (Millipore, #MSSACCEPTOR) whose wells were filled with the same phosphate buffer as in the filter plate. This assembly was incubated at room temperature for 24 hours. The experiment was halted by separating the filter plate from the acceptor plate. Aliquots were removed from the filter plate wells, acceptor plate wells, and stock solutions, and 1% trifluoroacetic acid was added to each. All solutions were measured by LC/UV, and passive diffusion rates were calculated using the peak area values (Avdeef, Alex. 2003. Page 147 in Absorption and Drug Development. Hoboken, N.J.: John Wiley & Sons).

[3] = target: T1, human muscarinic M3 receptors (Homo sapiens, UniProt P20309); type: cell-based; settings: for huM3/A9L Smax: percentage of maximal stimulation by carbachol; for huM3/A9L Potency relative to carbachol: relative to the potency of carbachol at its EC50
T1 construct: host or cells: A9L cells
Protocol: (§1) Muscarinic M1 and M3 agonist activity was evaluated by measuring the stimulation of inositol phosphate (IP) production in the presence of lithium chloride from A9L cells transfected with expression plasmids containing human muscarinic M1 and M3 receptors, respectively. The cell lines were a gift from Professor William Messer, and the methods were as described in Tejada et al. (J. Med. Chem. 2006; 49: 7518-31) except that the assay was scaled down to run in 384-well plates and the concentration of inositol-1-phosphate in the lysates was determined using the non-isotopic IP-One Terbium TR-FRET assay kit (Cisbio Bioassays, cat. #62IPAPEJ) according to the manufacturer's instructions.
(§2) Cells were grown to 90% confluence in 384-well high-base, small-volume plates (Greiner Bio-One), compounds were added at suitable concentrations in growth medium containing 10 mM LiCl, buffered with an extra 10 mM HEPES (pH=7.4), and incubated for 60 minutes at 37° C. Cells were lysed and assayed for IP following the manufacturer's instructions.
(§3) The value for a full agonist is 100%, while partial agonists give values below 100%.

[4] = target: T2, human muscarinic M1 receptors (Homo sapiens, UniProt P11229); type: cell-based; settings: for huM1/A9L Smax: percentage of maximal stimulation by carbachol; for huM1/A9L Potency relative to carbachol: relative to the potency of carbachol at its EC50
T2 construct: host or cells: A9L cells
T2 sequence (P11229 1-460): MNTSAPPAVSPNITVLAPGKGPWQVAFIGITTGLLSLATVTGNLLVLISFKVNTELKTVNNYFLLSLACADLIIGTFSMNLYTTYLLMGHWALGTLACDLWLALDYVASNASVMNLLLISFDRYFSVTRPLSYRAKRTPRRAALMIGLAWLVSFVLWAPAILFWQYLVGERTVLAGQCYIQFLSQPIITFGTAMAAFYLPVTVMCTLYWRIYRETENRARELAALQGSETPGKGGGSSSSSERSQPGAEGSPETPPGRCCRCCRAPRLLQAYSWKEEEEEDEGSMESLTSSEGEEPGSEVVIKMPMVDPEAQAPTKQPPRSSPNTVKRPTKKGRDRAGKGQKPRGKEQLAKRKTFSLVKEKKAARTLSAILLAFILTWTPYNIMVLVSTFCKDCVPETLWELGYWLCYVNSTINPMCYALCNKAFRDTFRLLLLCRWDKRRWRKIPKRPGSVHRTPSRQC
Protocol: as §1, §2, §3

[5] = system: muscarinic M1 receptors in the hippocampus; assay: In vivo inositol phosphate increase in hippocampus, Example 44; design: species or system Long Evans Hooded rats; settings: rat, 3 mg/kg sc, 5 mmole/kg LiCl
Protocol: (§4) In lithium chloride-treated laboratory rodents, engagement of muscarinic M1 receptors in the hippocampus may usefully be evaluated in vivo by measuring the increase in the tissue of inositol phosphate (Bymaster F P et al Brain Res 795 (1998) 179-190). This may also be extended to measure engagement of muscaric M3 receptors in the salivary glands.
(§5) Experimental compounds were administered subcutaneously at 3 mg/kg using standard techniques to Long Evans Hooded rats weighing 225 to 350 g, and which had been pretreated with a subcutaneous injection of lithium chloride at a suitable dose between 3 and 5 mmole/kg. At suitable times the animals were briefly anesthetized using 5% isoflurane and euthanized by decapitation. The brains and submaxillary salivary glands were rapidly dissected out, and the hippocampuses were dissected from the brains. The dissected tissues were homogenized in a suitable volume of ice-cold phosphate-buffered saline containing 10 mM lithium chloride (pH=7.4) using a tissue homogenizer, and used immediately or frozen in aliquots at −80° C. for future use. The concentration of inositol-1-phosphate was determined in the homogenates using the […] IP-One Terbium TR-FRET assay kit (Cisbio Bioassays, cat. #62IPAPEJ) according to the manufacturer's instructions.

[6] = system: muscarinic M3 receptors in the salivary glands; assay: In vivo inositol phosphate increase in salivary glands, Example 44; design: species or system Long Evans Hooded rats; settings: rat, 3 mg/kg sc, 5 mmole/kg LiCl
Protocol: as §4, §5

[7] = system: pooled male human liver microsomes; assay: Metabolism in human liver microsomes, Example 45; type: in vitro ADME
Protocol: Aliquots were removed every 2 hours, and 1% formic acid was added to halt the reaction. Samples were centrifuged, filtered through 0.2 micron spinfilter, and the amount of each compound in the supernatants was quantitated using LC/MS/MS as follows. The ultra-filtrates were subjected to reverse-phase liquid chromatography using a 150×2.1 mm Agilent C8-reverse phase column on a Shimadzu Prominence LC, eluting the compound with a gradient of 2%-50% acetonitrile+0.1% formic acid over 5 minutes. The concentration of the compound in the column effluent was measured using an Applied Biosystems API-3200 triple quadrupole mass spectrometer equipped with a Turbo V source (electrospray sample injection) system. The counts of the characteristic parent ions of the protonated compound and product ions were converted to concentration by comparison with a standard calibration curve. The parent/daughter ion pairs that were monitored for each compound were: 166.0/82.0 (105), 166.0/82.0 (106b), 166.0/82.0 (106a), 169.0/83.0 (136), 168.2/83.0 (121), 168.1/83.0 (122a), 168.1/83.0 (122b), 170.2/83.0 (134), 168.2/84.1 (135), 168.1/84.1 (137) and 169.2/82.1 (138).

[8] = Blood and brain concentrations (rats), tail vein injection; type: in vivo, Long-Evans Hooded rats; settings: male, Long-Evans Hooded, rat, plasma, iv, 3 mg/kg, 3 mg/kg tail vein injection, read-out: Plasma Terminal Half-life (converted)
[9] = read-out: Brain Concentration at 1 hr
[10] = read-out: Plasma Concentration at 1 hr

T1 sequence (P20309 whole entry): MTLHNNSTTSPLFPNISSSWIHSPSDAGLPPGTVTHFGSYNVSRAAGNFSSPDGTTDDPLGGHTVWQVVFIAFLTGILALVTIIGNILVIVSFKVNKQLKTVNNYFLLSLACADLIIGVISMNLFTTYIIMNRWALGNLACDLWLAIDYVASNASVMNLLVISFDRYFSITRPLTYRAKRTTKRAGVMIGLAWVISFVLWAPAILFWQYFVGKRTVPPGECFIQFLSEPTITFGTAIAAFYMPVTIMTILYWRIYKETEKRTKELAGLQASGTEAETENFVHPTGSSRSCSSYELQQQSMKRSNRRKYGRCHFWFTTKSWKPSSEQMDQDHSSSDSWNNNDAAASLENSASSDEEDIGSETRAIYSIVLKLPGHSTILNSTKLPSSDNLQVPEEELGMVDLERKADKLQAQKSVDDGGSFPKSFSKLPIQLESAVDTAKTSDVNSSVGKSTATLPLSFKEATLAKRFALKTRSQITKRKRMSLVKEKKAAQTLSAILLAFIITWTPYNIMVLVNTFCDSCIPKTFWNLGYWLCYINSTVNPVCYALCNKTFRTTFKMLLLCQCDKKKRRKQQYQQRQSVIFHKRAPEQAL

Structure (SMILES)	Kp at 1 h [1]	concentration at 1 h [1, 9] [µM]	concentration at 1 h [1, 10] [µM]	Papp at 24 h, 400 µM [2] [×10⁻⁶ cm/s]	huM3/A9L Smax [3] [%]	huM1/A9L Smax [4] [%]	Increase in Inositol Phosphate in Hippocampus/Control [5] [%]	Increase in Inositol Phosphate in Salivary Gland/Control [6] [%]	Loss at 6 hrs (%) [7] [%]	half-life [8] [h]	huM3/A9L Potency relative to carbachol [3]	huM1/A9L Potency relative to carbachol [4]
[2H]C1([2H])NCC2(c3nc(C)no3)CC12 (racemic) [Compound 121, 5-(4,4-d2-3-Azabicyclo[3.1.0]hexan-1-yl)-3-methyl-1,2,4-oxadiazole]	0.51	8.6	16.8	3.78	37	73	795	239	13	1.26	–	–
Cc1noc([C@]23CNC[C@H]2C3)n1 [Compound 106b, 5-((1S,5S)-3-Azabicyclo[3.1.0]hexan-1-yl)-3-methyl-1,2,4-oxadiazole]	0.6	5.5	9.5	4.37	42	40	141	104	29	1.1	0.27	0.51
[2H]C1([2H])NC([2H])([2H])C2(c3nc(C)no3)CC12 (stereo not shown) [Compound 134, 5-(2,2,4,4-d4-3-Azabicyclo[3.1.0]hexan-1-yl)-3-methyl-1,2,4-oxadiazole]	0.65	8.4	13.5	3.46	41	61	574	214	10	1.4	0.35	1.17
Cc1noc([C@@]23CNC[C@@H]2C3)n1 [Compound 106a, 5-((1R,5R)-3-Azabicyclo[3.1.0]hexan-1-yl)-3-methyl-1,2,4-oxadiazole]	0.39	3.5	5.6	4.25	45	80	376	191	50	0.7	0.46	1.72
Cc1noc(C23CNCC2C3)n1 (racemic) [Compound 105, 5-(3-Azabicyclo[3.1.0]hexan-1-yl)-3-methyl-1,2,4-oxadiazole]	0.38	4.4	15	4.49	33	58	563	219	27	1.1	0.17	0.78
